According to patent publication US20230339886A1 (University of Florida Research Foundation, Incorporated, priority 2020, published 2023):

molecular target: T1, REV-ERBα LBD (human; residues 281-614 Δ324-422) (Homo sapiens, UniProt P20393, DEL324-422); experiment: TR-FRET corepressor interaction assay (REV-ERBα LBD, FITC-SMRT peptide); assay type: biochemical; details: Table 2, read-out: REVERBα agonism (EC50 class, FRET assay)
T1 construct: 6×Histag-REV-ERBα LBD (human; residues 281-614 Δ324-422); made in house; host or cells: Escherichia coli
T1 sequence (P20393 with tags, fused parts or gaps DEL324-422): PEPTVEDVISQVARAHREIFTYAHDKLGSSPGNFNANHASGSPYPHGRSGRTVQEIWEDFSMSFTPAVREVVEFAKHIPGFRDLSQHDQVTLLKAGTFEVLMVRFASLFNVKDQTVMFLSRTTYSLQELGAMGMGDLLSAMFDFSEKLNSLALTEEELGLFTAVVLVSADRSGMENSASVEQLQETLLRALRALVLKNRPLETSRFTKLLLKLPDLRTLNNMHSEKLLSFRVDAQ
T1 sequence (Q9Y618 2335-2356 partner limits assumed): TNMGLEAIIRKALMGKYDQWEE
Method: TR-FRET corepressor interaction assay. The time-resolved fluorescence resonance energy transfer (TR-FRET) assay was performed in black low-volume 384-well plates (Greiner). […] Ligand stocks were prepared via serial dilution in DMSO, added to wells in triplicate, and plates were incubated at 4° C. for 2 h and read using a BioTek Synergy Neo multimode plate reader. The Tb donor was excited at 340 nm; its fluorescence emission was monitored at 495 nm, and the acceptor FITC emission was measured at 520 nm; and the TR-FRET ratio was calculated as the signal at 520 nm divided by the signal at 495 nm. Data were plotted using GraphPad Prism as TR-FRET ratio vs. ligand concentration and fit to sigmoidal dose response curve equation.

| EC50 | Compound |
| --- | --- |
| > 3000 nM | CC(C)Cn1cc(C(C)CNS(=O)(=O)C2CC2)c2ccc(-c3ccccc3)cc21 (stereo not shown) [Compound 256] |
| 500 to 3000 nM | CC(C)Cn1cc([C@H]2C[C@H]2NS(=O)(=O)C(C)C)c2ccc(Br)cc21 [Compound 257] |
| < 500 nM | CC(C)Cn1cc([C@H]2C[C@H]2NS(=O)(=O)C(C)C)c2ccc(-c3ccncc3)cc21 [Compound 258] |
| > 3000 nM | CC(C)Cn1cc([C@H]2C[C@H]2NS(=O)(=O)C(C)C)c2ccc(-c3ccccc3)cc21 [Compound 259] |
| < 500 nM | CC(C)Cn1cc(CCNS(=O)(=O)C(C)C)c2cc(F)c(-c3ccccc3)cc21 [Compound 261] |
| < 500 nM | CC(C)Cn1cc(CNS(=O)(=O)C(C)C)c2cc(F)c(-c3ccccc3)cc21 [Compound 266] |
| < 500 nM | CC(C)Cn1cc(CNS(=O)(=O)C(C)C)c2cc(F)c(-c3ccccc3Cl)cc21 [Compound 267] |
| < 500 nM | CC(C)Cn1cc(CNS(=O)(=O)C(C)C)c2cc(F)c(-c3ccncc3Cl)cc21 [Compound 268] |
| < 500 nM | CC(C)Cn1cc(CNS(=O)(=O)C(C)C)c2cc(F)c(-c3ccccc3C(F)(F)F)cc21 [Compound 269] |
| < 500 nM | CC(C)S(=O)(=O)NCCc1cn(CCC(C)(C)C)c2cc(-c3ccncc3)ccc12 [Compound 270] |
| 500 to 3000 nM | CC(C)S(=O)(=O)NCCc1cn(CC(C(F)(F)F)C(F)(F)F)c2cc(-c3ccncc3)ccc12 [Compound 271] |
| < 500 nM | CC(C)S(=O)(=O)NCCc1cn(CC2CCCC2)c2cc(-c3ccncc3)ccc12 [Compound 272] |
| > 3000 nM | CC(C)Cn1cc(CC(NS(=O)(=O)C(C)C)C(F)(F)F)c2ccc(-c3ccncc3)cc21 (stereo not shown) [Compound 273] |
| > 3000 nM | CC(C)Cn1cc(CC(N(C)S(=O)(=O)C(C)C)C(F)(F)F)c2ccc(-c3ccncc3)cc21 (stereo not shown) [Compound 274] |
| 500 to 3000 nM | CC(C)Cn1cc(CC(C)NS(=O)(=O)C(C)C)c2ccc(-c3ccncc3)cc21 (stereo not shown) [Compound 275] |
| < 500 nM | CC(C)Cn1cc(CC(C)N(C)S(=O)(=O)C(C)C)c2ccc(-c3ccncc3)cc21 (stereo not shown) [Compound 276] |
| < 500 nM | CC(C)Cn1cc(CCN(C(C)C)S(=O)(=O)C(C)C)c2ccc(-c3ccncc3)cc21 [Compound 277] |
| < 500 nM | O=S(=O)(NCc1cn(CC2CCCC2)c2cc(-c3ccccc3C(F)(F)F)c(F)cc12)C1CC1 [Compound 280] |
| < 500 nM | O=S(=O)(NCCc1cn(CC2CCCC2)c2cc(-c3ccncc3Cl)ccc12)C1CC1 [Compound 281] |
| 500 to 3000 nM | O=S(=O)(NCc1cn(CC(C(F)(F)F)C(F)(F)F)c2cc(-c3ccncc3Cl)c(F)cc12)C1CC1 [Compound 284] |
| > 3000 nM | CC(C)(C)C(=O)n1cc(CNS(=O)(=O)C(F)(F)F)c2cc(F)c(-c3ccncc3Cl)cc21 [Compound 285] |
| < 500 nM | CC(C)(C)Cn1cc(CCNS(=O)(=O)C2CC2)c2cc(F)c(-c3ccccc3C(F)(F)F)cc21 [Compound 287] |
| < 500 nM | CC(C)(C)Cn1cc(CCNS(=O)(=O)C2CC2)c2cc(F)c(-c3ccncc3Cl)cc21 [Compound 288] |
| < 500 nM | CC(C)S(=O)(=O)NCCc1cn(CC(C)(C)C)c2cc(-c3ccccc3C(F)(F)F)c(F)cc12 [Compound 289] |
| < 500 nM | CC(C)S(=O)(=O)NCCc1cn(CC(C)(C)C)c2cc(-c3ccncc3Cl)c(F)cc12 [Compound 290] |
| > 3000 nM | CC(C)Cn1cc(C(C)N[S+]([O-])C(C)(C)C)c2ccc(-c3ccccc3C(F)(F)F)cc21 (stereo not shown) [Compound 291] |
| > 3000 nM | Cc1c(CCNS(=O)(=O)N(C)C)c2ccc(-c3ccncc3)cc2n1CC(C)C [Example 41, dimethyl({2-[2-methyl-1-(2-methylpropyl)-6-(pyridin-4-yl)-1H-indol-3-yl]ethyl}sulfamoyl)amine] |
| 500 to 3000 nM | CC(C)Cn1cc(CCNS(=O)(=O)N(C)C)c2ccc(-c3ccc(F)cc3)cc21 [Example 45, N-{2-[6-(4-fluorophenyl)-1-(2-methylpropyl)-1H-indol-3-yl]ethyl}-N,N-dimethylsulfuric diamide] |
